In patent US4663326A, “Pyrazolo[4,3-d]pyrimidine-5,7-(4H,6H)dione or -5-thione-7-one analogs” (Warner-Lambert Company, priority 1985, dated 1987):
Values joined by “and” are separate entries in the source; they are usually repeats but may differ in a detail not shown here. Equal entries are not always repeated.

How the values were obtained:
[1] = molecular target: T1, adenosine receptors (designated A1) (Rattus norvegicus, UniProt P25099); assay: Adenosine receptor binding - A1 receptor affinity (RBA1), [3H]-CHA displacement, rat whole brain minus cerebellum and brainstem membranes; set-up: species or system rat (male Long Evans); conditions: 1.0 nM [3H]-CHA, 25° C., pH 7.7; repeat tests (Test 1-4) one line each; read-out: RBA-1 (IC50, adenosine A1 affinity)
T1 construct: Whole brain minus cerebellum and brainstem from male Long Evans rats (150-200 g); from tissue; host or cells: whole brain minus cerebellum and brainstem, male Long Evans rats, membranes
T1 sequence (P25099 1-326): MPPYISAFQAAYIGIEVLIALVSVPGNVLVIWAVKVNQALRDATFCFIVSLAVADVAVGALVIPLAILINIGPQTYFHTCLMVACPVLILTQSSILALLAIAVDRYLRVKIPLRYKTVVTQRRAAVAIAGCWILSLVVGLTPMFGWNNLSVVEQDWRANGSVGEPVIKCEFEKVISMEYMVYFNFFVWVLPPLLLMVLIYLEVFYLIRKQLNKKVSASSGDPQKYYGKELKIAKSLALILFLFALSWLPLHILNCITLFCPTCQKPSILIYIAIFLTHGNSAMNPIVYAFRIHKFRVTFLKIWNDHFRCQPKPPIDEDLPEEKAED
Experimental: ADENOSINE RECEPTOR BINDING-A1 RECEPTOR AFFINITY (RBA1)
Whole brain minus cerebellum and brainstem from male Long Evans rats (150-200 g) was homogenized in 30 volumes of ice-cold 0.05M Tris-HCl buffer pH 7.7 using a Brinkman Polytron PT-10, (setting number 6 for 20 seconds) and centrifuged for ten minutes at 20,000×g (Sorvall RC-2), 4° C. The supernatant was discarded, and the pellet was resuspended and centrifuged as before. The pellet was resuspended in 20 ml Tris-HCl buffer containing two International Units/ml of adenosine deaminase (Sigma type III from calf intestinal mucosa), incubated at 37° C. for 30 minutes, then subsequently at 0° C. for ten minutes. The homogenate was again centrifuged, and the final pellet was resuspended in ice-cold 0.05M Tris-HCl buffer pH 7.7 to a concentration of 20 mg/ml original wet tissue weight and used immediately.
Tissue homogenate (10 mg/ml) was incubated in 0.05M Tris-HCl buffer pH 7.7 containing 1.0 nM [^3 H]-N^6 -cyclohexyladenosine (^3 H]-CHA) with or without test agents in triplicate for one hour at 25° C. Incubation volume was 2 ml. Unbound [^3 H]-CHA was separated by rapid filtration under reduced pressure through Whatman glass fiber (GF/B) filters. The filters were rinsed three times with 5 ml of ice cold 0.05M Tris-HCl buffer pH 7.7. The radio-labeled ligand retained on the filter was measured by liquid scintillation spectrophotometry after shaking the filters for one hour or longer on a mechanical shaker in 10 ml of Beckman Ready-Solv HP scintillation cocktail.
Nonspecific binding was defined as the binding which occurred in the presence of 1 mM theophylline. The concentration of test agent which inhibited 50% of the specific binding (IC50) was determined by nonlinear computer curve fit. The Scatchard plot was calculated by linear regression of the line obtained by plotting the amount of radioligand bound ([…]) versus [bound radioligand/free radioligand].Since the amount of radioligand bound was a small fraction of the total amount added, free radioligand was defined as the concentration (nM) of radioligand added to the incubation mixture. The Hill coefficient was calculated by linear regression of the line obtained by plotting the log of the bound radioligand vs the log of the [bound radioligand/(Bmax -bound radioligand)]. The maximal number of binding sites (Bmax) was calculated from the Scatchard plot.

Type 1 Phosphodiesterase = assay: PDE inhibition, Type 1 phosphodiesterase, cardiac muscle; type: biochemical; conditions: 1 × 10^-4 M
Experimental: (§1) Phosphodiesterase activity was measured as described previously (Weishaar, P. E., Quade, M., Boyd, D., Schenden, J., Mark, S. S., Kaplan, H. R., Drug Devel. Res., 3:517-534, 1983), in a reaction medium containing 40 mM Tris-HCl (pH 8.0), 5 mM MgCl and 4 mM 2-mercaptoethanol. Unless otherwise noted, the concentration of substrate (^3 H-cyclic AMP or ^3 H-cyclic GMP) was 1.0 μM. All agents examined were dissolved in dimethyl sulfoxide (DMSO). Final concentration of the reaction medium was either 2.5% (cardiac and platelet studies) or 1.25% (smooth muscle studies). This concentration of DMSO produced an approximately 10% inhibition of enzyme activity. […] Three to four such concentration-response curves were generated for each agent, generally using different enzyme preparations for each concentration-response.

Type 2 Phosphodiesterase = molecular target: T2, Type 2 Phosphodiesterase (Cavia porcellus, UniProt A0A286XUV5); assay: PDE inhibition, Type 2 phosphodiesterase, cardiac muscle; type: biochemical; set-up: inhibition: dose or concentration left out as unconfirmed; conditions: for inhibition at 100 µM: 1 × 10^-4 M, read-out: % Inhibition of 3H-cGMP Hydrolysis, Type 2 Phosphodiesterase; for inhibition: read-out: % Inhibition of 3H-cAMP Hydrolysis, Type 2 Phosphodiesterase
T2 construct: from tissue
T2 sequence (A0A286XUV5 22-936): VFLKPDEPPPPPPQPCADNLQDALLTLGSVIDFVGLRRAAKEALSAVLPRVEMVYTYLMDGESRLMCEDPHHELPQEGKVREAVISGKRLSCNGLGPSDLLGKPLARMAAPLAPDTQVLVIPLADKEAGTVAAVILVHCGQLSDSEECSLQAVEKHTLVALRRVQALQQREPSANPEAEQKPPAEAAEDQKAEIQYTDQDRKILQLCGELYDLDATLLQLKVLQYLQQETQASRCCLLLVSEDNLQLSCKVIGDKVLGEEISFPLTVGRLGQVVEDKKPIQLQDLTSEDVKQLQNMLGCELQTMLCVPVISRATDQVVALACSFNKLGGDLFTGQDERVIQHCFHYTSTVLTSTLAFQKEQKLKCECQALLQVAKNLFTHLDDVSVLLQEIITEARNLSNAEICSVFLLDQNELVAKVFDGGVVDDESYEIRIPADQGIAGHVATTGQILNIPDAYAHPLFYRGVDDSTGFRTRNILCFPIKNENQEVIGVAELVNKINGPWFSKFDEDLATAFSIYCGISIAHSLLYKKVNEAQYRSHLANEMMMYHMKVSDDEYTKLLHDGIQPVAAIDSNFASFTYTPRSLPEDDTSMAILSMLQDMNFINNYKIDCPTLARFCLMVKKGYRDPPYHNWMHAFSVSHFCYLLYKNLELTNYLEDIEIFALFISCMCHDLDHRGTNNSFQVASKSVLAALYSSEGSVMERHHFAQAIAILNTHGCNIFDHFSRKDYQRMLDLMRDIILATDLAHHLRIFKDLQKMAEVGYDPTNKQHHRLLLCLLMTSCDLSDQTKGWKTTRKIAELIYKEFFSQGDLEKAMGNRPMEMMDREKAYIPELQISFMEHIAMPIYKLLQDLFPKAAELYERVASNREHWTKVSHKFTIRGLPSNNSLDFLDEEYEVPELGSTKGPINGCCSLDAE
Experimental: as §1

Type 3 Phosphodiesterase = assay: PDE inhibition, Type 3 phosphodiesterase, cardiac muscle; type: biochemical; conditions: 1 × 10^-4 M
Experimental: as §1

histamine = assay: Bronchodilator test (BCA), histamine spasmogen, guinea pigs; type: in vivo, Hartley Guinea Pigs; set-up: key: Active; conditions: 50 mg/kg
Excerpt: The compounds of this invention may be determined to have antiallergy activity by a standard laboratory means employing the bronchodilator test (BCA) readily accepted as a standard for antiallergy activity, which is described in Siegmund, H. O., et al (J. Pharmacol. and Exptl., 90:254, 1949 and Herxheimer, H., J. Physiol., 117: 252-255, 1952). Thus, antiallergy activity was found for compounds of this invention by this BCA test using Hartley Guinea Pigs by the procedures as described below.
Naive (BCA) pigs are exposed to spasmogen for ten minutes by means of a De Vilbiss number 40 nebulizer positioned at the back of a closed, six unit plexiglas chamger (19×12.5×9"). Air flow is adjusted to give a pressure of 10 lbs/in; six animals per treatment are averaged, and the mean value for compound treated animals is compared to that for animals treated with vehicle. […]
The spasmogen may be acetylcholine chloride (0.3%), histamine (0.1%), methacholine chloride (Mecholyl) (0.1%) or serotonin creatinine sulfate. Each nebulizer dispenses 0.2 cc/minute.

Row | IC50 [1] | % Inhibition of 3H-cAMP Hydrolysis, Type 1 Phosphodiesterase (Type 1 Phosphodiesterase) | % Inhibition of 3H-cGMP Hydrolysis, Type 1 Phosphodiesterase (Type 1 Phosphodiesterase) | inhibition at 100 µM (Type 2 Phosphodiesterase) [%] | inhibition (Type 2 Phosphodiesterase) [%] | % Inhibition of 3H-cAMP Hydrolysis, Type 3 Phosphodiesterase (Type 3 Phosphodiesterase) | SMILES | BCA Results, Ratings (histamine)
1 | 1.04 µM and 1.52 µM | A (56-100% inhibition at 1 × 10^-5 M) | A (56-100% inhibition at 1 × 10^-5 M) | 56 to 100 | 56 to 100 | A (56-100% inhibition at 1 × 10^-5 M) | CCn1c(=O)[nH]c2c(C)nn(CC)c2c1=O [Example 4, 1-Ethyl-3-methyl-6ethyl-1H-pyrazolo[4,3-d]pyrimidine-5,7-[4H,6H]dione] | A
2 | 0.458 µM and 0.992 µM and 0.378 µM and 0.401 µM | A (56-100% inhibition at 1 × 10^-5 M) | A (56-100% inhibition at 1 × 10^-5 M) | 56 to 100 | 56 to 100 | B (36-55% inhibition at 1 × 10^-5 M) | CCCn1c(=O)[nH]c2c(C)nn(CC)c2c1=O [Example 5, 1H-1-Ethyl-3-methyl-6-propyl-pyrazolo[4,3-d]pyrimidine-5,7-[4H,6H]dione] | A
3 | 2.53 µM | A (56-100% inhibition at 1 × 10^-5 M) | A (56-100% inhibition at 1 × 10^-5 M) | 56 to 100 | 36 to 55 | A (56-100% inhibition at 1 × 10^-5 M) | CCn1nc(C)c2[nH]c(=O)n(C)c(=O)c21 [Example 6, 1-Ethyl-3,6-dimethyl-1H-pyrazolo-[4,3-d]pyrimidine-5,7-[4H,6H]dione] | A

Further lines, the molecule ahead of its results:

Row | SMILES | IC50 [1] | % Inhibition of 3H-cAMP Hydrolysis, Type 1 Phosphodiesterase (Type 1 Phosphodiesterase) | % Inhibition of 3H-cGMP Hydrolysis, Type 1 Phosphodiesterase (Type 1 Phosphodiesterase) | inhibition at 100 µM (Type 2 Phosphodiesterase) [%] | inhibition (Type 2 Phosphodiesterase) [%] | % Inhibition of 3H-cAMP Hydrolysis, Type 3 Phosphodiesterase (Type 3 Phosphodiesterase) | BCA Results, Ratings (histamine)
4 | CCn1nc(C)c2[nH]c(=O)[nH]c(=O)c21 [Example 3, 1-Ethyl-3-methyl-1H-pyrazolo[4,3-d]pyrimidine-5,7(4H,6H)dione] | 5.88 µM | B (36-55% inhibition at 1 × 10^-5 M) | B (36-55% inhibition at 1 × 10^-5 M) | 36 to 55 | 36 to 55 | A (56-100% inhibition at 1 × 10^-5 M) | A
5 | Cc1nn(C)c2c(=O)n(C)c(=O)n(C)c12 [Example 7, 1,3,4,6-tetramethyl-1H-pyrazolo[4,3-d]pyrimidine-5,7-[4H,6H]dione] | – | C (21-35% inhibition at 1 × 10^-5 M) | N (0-20% inhibition at 1 × 10^-5 M) | 36 to 55 | 36 to 55 | C (21-35% inhibition at 1 × 10^-5 M) | A
6 | CCn1c(=O)c2c(c(C)nn2C)n(CC)c1=O [Example 8, 4,6-Diethyl-1,3-dimethyl-1H-pyrazolo[4,3-d]pyrimidine-5,7-[4H,6H]dione] | – | B (36-55% inhibition at 1 × 10^-5 M) | B (36-55% inhibition at 1 × 10^-5 M) | 56 to 100 | 56 to 100 | A (56-100% inhibition at 1 × 10^-5 M) | A
7 | CCCn1c(=O)c2c(c(C)nn2C)n(CCC)c1=O [Example 9, 1,3-dimethyl-4,6-dipropyl-1H-pyra-3-zolo[4,3-d]pyrimidine-5,7-[4H,6H]dione] | – | A (56-100% inhibition at 1 × 10^-5 M) | A (56-100% inhibition at 1 × 10^-5 M) | 56 to 100 | 56 to 100 | A (56-100% inhibition at 1 × 10^-5 M) | –
